Results taken from patent publication US6784177B2, “Methods using hydralazine compounds and isosorbide dinitrate or isosorbide mononitrate” (Nitro Med, Inc., priority 1999, dated 2004).
Like-named read-outs stand apart in the source and are kept apart here.

Columns and labels:
[1] = test system: male patients with heart failure; experiment: V-HeFT I hospitalization; format: in vivo, human
Description: (§1) Drug administration was double-blind.

[2] = test system: male patients with heart failure; settings: V-HeFT I
Procedure: Baseline measurements were restricted to the test done at the time of randomization. Change in measurements from baseline were compared between black and white patients using t-tests performed for each scheduled follow-up. […] Survival curves were compared by the log-rank test. Survival in black and white patients was further analyzed by presence or absence of a history of hypertension.
In the present invention, an interaction analysis between race and treatment was performed for both V-HeFT I and II, adjusting for baseline imbalances.
Male patients were screened for participation in the study on the basis of a history of heart failure or documentation of left ventricular enlargement or dysfunction by chest radiography, echocardiography or radionuclide ventriculography. The specific ventricular imaging requirement for entry was one of the following: a radiographic cardiothoracic ratio >0.55, an echocardiographic left ventricular end-diastolic diameter >2.7 cm/m^2 body surface area or radionuclide left ventricular ejection fraction <0.45. In addition, patients were eligible for entry only if they had reduced maximal exercise tolerance. This was defined as a measured peak oxygen consumption (VO2)<25 ml/kg per min during a progressive bicycle ergometer exercise test.
Nearly all patients were receiving background therapy with diuretic and/or digoxin. […] Full doses of the vasodilator regimens in V-HeFT I were prazosin 5 mg four times daily, the combination of hydralazine 75 mg and isosorbide dinitrate 40 mg four times daily, or placebo. […] Drug administration was double-blind. All patients were studied for the duration of the trial and for a minimum of 6 months or until death.

[3] = test system: male patients with heart failure; experiment: V-HeFT II mortality (Kaplan-Meier, log-rank); format: in vivo, human
Description: as §1

[4] = test system: male patients with heart failure; experiment: V-HeFT II hospitalization; format: in vivo, human
Description: as §1

[5] = test system: male patients with heart failure; experiment: V-HeFT II peak exercise oxygen consumption (MVO2), bicycle-ergometer exercise test; format: in vivo, human
Procedure: “Oxygen consumption” was measured during a progressive maximal bicycle-ergometer exercise test taken while the expired air was collected continuously to monitor oxygen consumption. […] Patients with pulmonary diseases, obstructive valvular diseases and the like, tend to have a low oxygen consumption. An increase in a patient's oxygen consumption typically results in the patient's increased exercise tolerance and implies that the patient would have an improved quality of life.
as §1

[6] = test system: male patients with heart failure; experiment: V-HeFT II quality of life, Heart Condition Assessment (HCA) questionnaire; format: in vivo, human; settings: black patients, at 12 months, negative = improved, positive = worsened, p=0.043
Procedure: “Quality of life” refers to one or more of a persons ability to walk, climb stairs, do errands, work around the house, participate in recreational activities, and/or not requiring rest during the day, and/or the absence of sleeping problems or shortness of breath. The quality of life was measured using the Heart Condition Assessment (HCA) questionnaire. The questionnaire was self-administered after brief standardization instructions. The score was obtained by summing the ranks of the responses to each question.
as §1

[7] = test system: male patients with heart failure; experiment: V-HeFT II change in systolic blood pressure; format: in vivo, human
Description: as §1

[8] = test system: male patients with heart failure; experiment: V-HeFT II change in radionuclide left ventricular ejection fraction; format: in vivo, human; settings: both racial groups
Description: as §1

[9] = test system: male patients with heart failure; experiment: V-HeFT II change in plasma norepinephrine (radioenzymatic assay); format: in vivo, human; settings: either racial group
Description: as §1

[10] = test system: male patients with heart failure; experiment: V-HeFT II change in radiographic cardiothoracic ratio; format: in vivo, human; settings: white patients
Description: as §1

[11] = test system: black and white subgroups; experiment: black:white relative risk in placebo and enalapril groups (trial not named); format: in vivo, human; settings: enalapril group; placebo group 1.15

COc1cc2nc(N3CCN(C(=O)c4ccco4)CC3)nc(N)c2cc1OC [prazosin]
patients hospitalized for CHF (%) ([1]; black patients): 23. % | patients hospitalized for any reason (%) ([1]; black patients): 40.4% | patients hospitalized for CHF (%) ([1]; white patients): 31.5% | patients hospitalized for any reason (%) ([1]; white patients): 35.4% | annual mortality rate (AMR) ([2]; black patients, placebo AMR 17.3%): 15.4% | treatment benefit on survival ([2]; white patients, vs placebo (FIG. 2B)): absence of demonstrable treatment benefit | annual mortality rate (AMR) ([2]; white patients, placebo AMR 18.8%, p=NS): 22.1%

CCOC(=O)[C@H](CCc1ccccc1)N[C@@H](C)C(=O)N1CCC[C@H]1C(=O)O [enalapril]
deaths among treated patients ([3]; black patients, of 106 on enalapril, of 109 on hydralazine-isosorbide dinitrate): 39 | annual mortality rate (AMR) ([3]; black patients, p=NS): 12.8% | mortality reduction with enalapril compared to hydralazine and isosorbide dinitrate ([3]; white patients with a history of hypertension, p<0.02): significant mortality reduction | annual mortality rate (AMR) ([3]; white patients, log rank p=0.02): 11.0% | deaths among treated patients ([3]; white patients, of 292 on enalapril, of 282 on hydralazine-isosorbide dinitrate): 90 | mortality reduction with enalapril compared to hydralazine and isosorbide dinitrate ([3]; whites or blacks without hypertensive history, blacks with hypertensive history): did not differ | patients hospitalized for CHF (%) ([4]; black patients): 22.6% | patients hospitalized for any reason (%) ([4]; black patients): 61.3% | patients hospitalized for CHF (%) ([4]; white patients): 17.5% | patients hospitalized for any reason (%) ([4]; white patients): 62.0% | mean improvement (increase) from baseline in MVO2, adjusted for differences in baseline characteristics ([5]; black patients, 12 months, p=0.15): 0.6 mL/h/kg | decrease from baseline in MVO2 ([5]; black patients, 12 months, unadjusted, p=0.19): 2.82 mL/h/kg | effect on oxygen consumption (MVO2) ([5]; both black and white patients, 13 weeks): did not improve | quality of life score (HCA questionnaire) [6]: +1.04 | systolic blood pressure after the initial fall ([7]; black patients): recovered by 13 weeks | systolic blood pressure after the initial fall ([7]; white patients, 4.5 years of follow-up): remained lower thereafter | radionuclide ejection fraction (EF) response [8]: rose | change in plasma norepinephrine (PNE) [9]: not apparent | reduction in radiographic heart size (cardiothoracic ratio) during follow-up [10]: persisted through 3 years | black:white relative risk [11]: 1.34
